Consider six compounds from ChEMBL document CHEMBL3351859, “Indoleamine 2,3-dioxygenase inhibitors: potential treatment for cancer, sepsis, and more” (ACS Med Chem Lett, 2014).

Molecules are shown by their SMILES.

For this experiment, the target named is Indoleamine 2,3-dioxygenase 1 (Homo sapiens, UniProt P14902). In words: Inhibition of intracellular IDO1 activity in human HeLa cells assessed as L-kynurenine production by Ehrlichs test. The class given is cell-based.
Sequence of Indoleamine 2,3-dioxygenase 1 (P14902 whole entry): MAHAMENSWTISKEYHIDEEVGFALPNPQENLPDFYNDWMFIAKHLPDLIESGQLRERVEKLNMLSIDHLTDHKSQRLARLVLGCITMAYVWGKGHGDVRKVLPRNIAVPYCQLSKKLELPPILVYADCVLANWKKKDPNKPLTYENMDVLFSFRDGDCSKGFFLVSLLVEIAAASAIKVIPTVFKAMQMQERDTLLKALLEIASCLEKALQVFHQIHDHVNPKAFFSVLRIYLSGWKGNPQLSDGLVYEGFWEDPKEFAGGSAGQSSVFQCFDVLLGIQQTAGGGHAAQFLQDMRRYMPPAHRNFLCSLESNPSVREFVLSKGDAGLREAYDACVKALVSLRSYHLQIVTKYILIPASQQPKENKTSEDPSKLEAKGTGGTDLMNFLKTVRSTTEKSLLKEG

As a reminder, the IC50 is the concentration needed to halve the response being measured. For the compound `CCc1cc(Cl)ccc1Nc1cnn[nH]1`, the IC50 is less than 100 nM.

Take `CCc1cc(Nc2cnn[nH]2)ccc1Cl`: the IC50 was found to be 100 nM.

In the case of `CS(=O)(=O)NCc1cc(Cl)ccc1Nc1cnn[nH]1`, the IC50 came to 1000 nM.

As for `O=C(O)C1CC(Cc2cc(Cl)ccc2Nc2cn[nH]n2)C1` (stereo unspecified), the IC50 came to 1000 nM.

For the compound `Cc1cc(F)ccc1Nc1c[nH]nn1`, the IC50 was less than 100 nM.

As to `N#Cc1cc(Nc2cn[nH]n2)ccc1Cl`, the IC50 came out at 100 nM.
